Test results taken from patent US20230136702A1, “Inhibitors of Human Herpesviruses” (The Governors of the University of Alberta, priority 2020, published 2023).
Read-outs that look alike come from different tables or passages of the source.

Tests used:
[1] = system: HCMV US3-6-EGFP-HCMV-AD169 strain; assay: In vitro inhibitory (antiviral) activity against HCMV, GFP reporter in MRC5 cells; type: cell-based, Human cytomegalovirus (HCMV); settings: Human betaherpesvirus 5, AD169, MRC5, 96 h, read-out: HCMV Antiviral EC50 range
Procedure: (§1) Exemplary compounds (e.g., as described herein) were prepared as 20 mM stock solutions with DMSO. Reference compound was ganciclovir (Sigma). Compounds were tested at 8 concentrations, 3-fold serial dilutions, in duplicate for EC50 and CC50 determinations. The highest testing concentrations of the exemplary compounds and reference compound were 40 μM and 100 μM, respectively. The final concentration of DMSO in the cell culture was 0.5%.
HCMV US3-6-EGFP-HCMV-AD169 strain was obtained from Institute Pasteur of Shanghai, CAS. The virus contains GFP as a reporter of the viral replication.
(§2) MRC5 cells (ATCC CCL-171) was obtained from the ATCC and maintained in the EMEM (Sigma) supplemented with 10% FBS (HyClone), 1% L-glutamine (Gibco), 1% NEAA (Gibco), and 1% PS (Hyclone). Reagent:
In 96-well plates, MRC5 cells were seeded at 20,000 cells per well and cultured at 37° C. and 5% C02 overnight. Next day, compounds (8 concentrations, 3-fold dilutions, in duplicate) and US3-6-EGFP-HCMV-AD169 (MOI=0.1) were added to the cells. The resulting cultures were incubated at 37° C. and 5% C02 for 4 days. Fluorescence intensity was determined by Acumen Cellista (TTP LabTech). The antiviral activity of each compound was calculated based on the inhibition of expression of GFP at each concentration normalized by the cell control (cells without virus infection or compound treatment).
(§3) Antiviral activity and cytotoxicity of the compounds were expressed as % Inhibition and % Viability, respectively, and calculated with the formulas below:
Inhibition (%)=100−(Raw dataCPD−AverageCC)/(AverageVC−AverageCC)*100
(§4) Raw dataCPD indicates the values of the compound-treated wells; AverageVC, AverageCC and AverageMC indicate the average values of the virus control (cells infected with virus, without compound treatment), cell control and medium control wells, respectively.
(§5) EC50 and CC50 values were calculated using the GraphPad Prism software.

[2] = Cytotoxicity in MRC5 cells without virus infection (CCK8); type: cell-based; settings: human
Procedure: as §1, §2
Cytotoxicity of the compounds was assessed under the same conditions, but without virus infection, in parallel. Cell viability was measured with CCK8 following the manufacturer's manual. CC50 values were then calculated based on cytotoxicity at the test concentrations normalized by the medium control (medium only).
as §3
Viability (%)=(Raw dataCPD−AverageMC)/(AverageCC−AverageMC)*100
as §4, §5

[3] = target: T1, HCMV DNA polymerase (UL54) (Human cytomegalovirus, UniProt P08546); assay: HCMV DNA polymerase enzyme inhibition assay (ProFoldin, fluorescence); type: biochemical; settings: 37° C., duplicate, max 40 μM
T1 construct: 6His (C); made in house; host or cells: Sf9 insect cells (baculovirus, pFastBac)
T1 sequence (P08546 whole entry): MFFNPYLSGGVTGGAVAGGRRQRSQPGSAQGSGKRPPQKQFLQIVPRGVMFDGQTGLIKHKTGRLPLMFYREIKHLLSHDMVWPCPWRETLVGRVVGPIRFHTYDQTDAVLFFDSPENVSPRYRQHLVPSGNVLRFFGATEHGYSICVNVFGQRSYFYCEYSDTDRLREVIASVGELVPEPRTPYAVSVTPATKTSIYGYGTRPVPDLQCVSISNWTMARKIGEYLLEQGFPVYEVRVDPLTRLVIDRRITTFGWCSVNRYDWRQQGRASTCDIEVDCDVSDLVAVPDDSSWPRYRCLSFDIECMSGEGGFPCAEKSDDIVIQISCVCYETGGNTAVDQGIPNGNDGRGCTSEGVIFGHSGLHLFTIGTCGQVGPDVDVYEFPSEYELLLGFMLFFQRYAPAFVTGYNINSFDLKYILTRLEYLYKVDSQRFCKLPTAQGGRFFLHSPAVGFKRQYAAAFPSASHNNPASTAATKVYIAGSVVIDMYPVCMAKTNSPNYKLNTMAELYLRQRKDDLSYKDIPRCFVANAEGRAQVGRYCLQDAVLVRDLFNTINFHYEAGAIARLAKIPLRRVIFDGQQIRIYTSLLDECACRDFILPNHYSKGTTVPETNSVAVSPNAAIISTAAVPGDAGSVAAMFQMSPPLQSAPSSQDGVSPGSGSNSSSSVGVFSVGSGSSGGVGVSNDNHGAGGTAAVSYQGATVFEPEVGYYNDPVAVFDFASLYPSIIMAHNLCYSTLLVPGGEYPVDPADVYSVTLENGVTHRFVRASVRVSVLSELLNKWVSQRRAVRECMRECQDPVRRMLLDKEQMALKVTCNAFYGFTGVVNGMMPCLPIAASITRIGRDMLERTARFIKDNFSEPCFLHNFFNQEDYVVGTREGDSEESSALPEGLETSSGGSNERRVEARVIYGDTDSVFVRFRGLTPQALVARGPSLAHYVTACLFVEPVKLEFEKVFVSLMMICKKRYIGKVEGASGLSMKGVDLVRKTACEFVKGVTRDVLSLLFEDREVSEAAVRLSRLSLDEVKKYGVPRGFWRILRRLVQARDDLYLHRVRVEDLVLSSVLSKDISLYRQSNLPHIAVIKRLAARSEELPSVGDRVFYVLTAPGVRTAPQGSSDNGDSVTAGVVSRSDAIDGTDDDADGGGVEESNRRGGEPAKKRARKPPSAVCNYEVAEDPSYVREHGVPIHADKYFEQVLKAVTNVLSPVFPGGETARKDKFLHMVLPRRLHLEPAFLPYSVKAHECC
Procedure: The HCMV DNA polymerase assay was developed by ProFoldin. The assay detects the formation of DNA from the DNA polymerase reaction in the presence of a DNA template, dATP and dGTP. The formation of the DNA is detected by using a fluorescence method. The fluorescence intensity increases when DNA is generated by the enzyme reaction.
A time-course experiment was performed aside the enzyme inhibition assay to ensure the assay was sensitive to the enzyme inhibition. The wells for the time-course experiment contained 1 μL of DMSO and the same reaction mixture as that in the enzyme inhibition assay. The time-course data varied between plates. The reactions were stopped when the fluorescence reached a value of about 3700 for each plate.
Exemplary solid compounds (e.g., as described herein) were dissolved in DMSO to make […] stock solutions. PFA (phosphonoformic acid or phosphonomethanoic acid) was used as a positive control. The compound mother plates were prepared at 50× concentrated compound concentrations with a 2-fold serial dilution. All the exemplary compounds except PFA were diluted in DMSO. PFA was diluted in water. The maximum compound concentration was 2 mM that gave the final concentration of 40 μM in the assay. One microliter of the 50× stock solutions was transferred into the assay plates. Three copies of assay plates were prepared, two for HCMV DNA polymerase assay and one for compound background control.
The following is the protocol for enzyme inhibition performed at 37° C.:
1. Prepared a premix composed of 35347 μL of H2O, 5220 μL of 10× assay buffer and 149 μL of 350×HCMV DNA polymerase.
2. Added 39 μL of the premix into the wells with 1 μL of the compound. Incubated the mixture for at least 5 min.
3. Added 10 μL of 5×dNTP (0.1 mM), 5×DNA template solutions into each well and incubated the solution until the fluorescence value reached a value about 3700 for the DMSO-only control wells.
4. Added 50 μL of the 1× dye into the wells.
5. Read the fluorescence at emission wavelength of 535 nm and excitation wavelength of 485 nm.
For the compound background reading, added 99 μL of water in the wells with 1 μL of compounds and read the fluorescence. […] The 0% inhibition value F0 was from the wells with DMSO (no inhibitor).
The background values were subtracted from the fluorescence reading to get the net fluorescence values. The net fluorescence values were used for calculation of the percentage inhibition.
The assay was performed in duplicate for the test article at […], 1.25, 0.625, 0.313, 0.156 and 0.078 μM. The IC50 curves were obtained by fitting the percentage inhibition values with the compound concentrations using Prism GraphPad software.

hERG potassium channel = target: T2, hERG potassium channel (Homo sapiens, UniProt Q12809); assay: Inhibition of hERG potassium channel, automated patch clamp (SyncroPatch 384PE) in CHO cells; type: cell-based
T2 construct: host or cells: CHO cells stably expressing hERG
T2 sequence (Q12809 whole entry): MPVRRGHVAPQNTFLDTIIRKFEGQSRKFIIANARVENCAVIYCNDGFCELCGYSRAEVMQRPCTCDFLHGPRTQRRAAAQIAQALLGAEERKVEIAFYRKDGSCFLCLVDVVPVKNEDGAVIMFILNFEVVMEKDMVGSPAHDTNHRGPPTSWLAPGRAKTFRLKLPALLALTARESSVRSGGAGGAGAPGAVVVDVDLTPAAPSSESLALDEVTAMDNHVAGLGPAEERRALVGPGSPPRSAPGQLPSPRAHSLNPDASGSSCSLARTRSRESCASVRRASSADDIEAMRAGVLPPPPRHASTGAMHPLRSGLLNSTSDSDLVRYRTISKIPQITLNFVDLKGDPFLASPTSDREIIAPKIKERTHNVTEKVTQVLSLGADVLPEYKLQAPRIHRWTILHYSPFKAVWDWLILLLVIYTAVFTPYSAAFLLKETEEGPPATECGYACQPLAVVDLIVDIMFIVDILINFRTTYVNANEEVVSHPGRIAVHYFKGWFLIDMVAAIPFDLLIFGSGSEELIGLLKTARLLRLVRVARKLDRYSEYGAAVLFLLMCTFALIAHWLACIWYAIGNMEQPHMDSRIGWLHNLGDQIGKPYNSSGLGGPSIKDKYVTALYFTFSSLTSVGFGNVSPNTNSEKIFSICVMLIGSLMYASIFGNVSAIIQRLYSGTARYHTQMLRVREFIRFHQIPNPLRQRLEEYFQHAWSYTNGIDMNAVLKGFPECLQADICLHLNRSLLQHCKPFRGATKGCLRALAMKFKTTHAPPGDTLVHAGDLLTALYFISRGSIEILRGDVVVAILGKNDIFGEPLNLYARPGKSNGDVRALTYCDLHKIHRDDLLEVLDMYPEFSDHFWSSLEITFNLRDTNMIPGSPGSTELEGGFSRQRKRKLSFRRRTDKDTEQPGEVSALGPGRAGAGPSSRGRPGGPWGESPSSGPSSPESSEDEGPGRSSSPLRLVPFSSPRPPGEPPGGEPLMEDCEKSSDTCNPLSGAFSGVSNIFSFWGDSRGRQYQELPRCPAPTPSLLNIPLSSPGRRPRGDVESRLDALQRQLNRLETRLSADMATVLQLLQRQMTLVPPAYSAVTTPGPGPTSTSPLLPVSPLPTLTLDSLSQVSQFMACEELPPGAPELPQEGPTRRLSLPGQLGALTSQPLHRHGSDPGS
Procedure: This automated patch clamp method (SyncroPatch 384PE) CHO cells stably expressing hERG potassium channels from Sophion Biosciences were used for this test.
The cells were cultured in a humidified and air-controlled (5% C02) incubator at 37° C.
The CHO cells which were at least two days after plating and more than 75% confluent would be used for experiments. Before testing, cells were harvested using TrypLE and resuspended in the physiological solution at the room temperature.
For the electrophysiological recordings the following solutions were used (Table 5). The physiological solution and external solution were prepared at least one month. The intracellular solution was prepared in batches aliquoted, and stored at 4° C. until used.
Exemplary compounds (e.g., as described herein) were dissolved in 100% DMSO to obtain stock solutions for different test concentrations. Then the stock solutions were further diluted into external solution to achieve final concentrations for testing. Visual check for precipitation was conducted before testing. Final DMSO concentration in external solution was not more than 0.30% for the compounds.
From this holding potential of −80 mV, the voltage was first stepped to −50 mV for 80 ms for leak subtraction, and then stepped to +20 mV for 4800 ms to open hERG channels. After that, the voltage was stepped back down to −50 mV for 5000 ms, causing a “rebound” or tail current, which was measured and collected for data analysis. Finally, the voltage was stepped back to the holding potential (−80 mV, 1000 ms). This voltage command protocol was repeated every 20000 msec. This command protocol was performed continuously during the test (vehicle control and test compound).
hERG SyncroPatch assay was conducted at room temperature. The Setup, Prime Chip, Catch and Seal Cells, Amplifier Settings, Voltage and Application Protocols were established with Biomek Software (Nanion).
One addition of 40 μL of the vehicle was applied, followed by 300s for a baseline period. Then the doses of exemplary test compounds were added with 40 μL. The exposure of test compound at each concentration was no less than 300s. […] Five concentrations (0.494 μM, 1.48 μM, 4.44 μM, 13.33 μM and 40.00 μM) were tested for each compound. Minimum 2 replicates per concentration were obtained.
Within each well recording, percent of control values were calculated for each test compound concentration current response based on peak current in presence of reference control (current response/peak current)×100%. The Dose-Response curves were fit to the standard Hill equation as shown below:
Ipost cpd/Ipre cpd=Bottom+(Top−Bottom)/(1+10^((Log IC50−X)*HillSlope))
Where X is the logarithm of concentration, Ipost cpd/Ipre cpd is the normalized peak current amplitude, Top is 1 and Bottom is equal to 0.
Curve-fitting and IC50 calculations were performed by GraphPad Prism 5.0. If the inhibition obtained at the lowest concentration tested was over 50%, or at the highest concentration tested was less than 50%, we reported the IC50 as less than lowest concentration, or higher than highest concentration, respectively.

[4] = CHO cells stably expressing hERG, room temperature, 0.494-40.00 μM, read-out: CHO-hERG Activity Range

SMILES: CC1(F)CN(C(=O)Cn2c(=O)c(C(=O)NCc3ccc(Cl)cc3)cc3nc(N4CCCC4=O)cnc32)C1 [Compound 1, N-[(4-chlorophenyl)methyl]-5-[2-(3-fluoro-3-methylazetidin-1-yl)-2-oxoethyl]-6-oxo-2-(2-oxopyrrolidin-1-yl)-5,6-dihydropyrido[2,3-b]pyrazine-7-carboxamide]
- EC50 [1]: < 1 µM
- CC50 at 4 days [2]: < 20 µM
- IC50 [3]: < 1 µM
- IC50 (hERG potassium channel; [4]): > 10 µM

SMILES: CC1(F)CN(C(=O)Cn2c(=O)c(C(=O)NCc3ccc(Cl)cc3)cc3nc(N4CCOC4=O)cnc32)C1 [Compound 2, N-[(4-chlorophenyl)methyl]-5-[2-(3-fluoro-3-methylazetidin-1-yl)-2-oxoethyl]-6-oxo-2-(2-oxo-1,3-oxazolidin-3-yl)-5,6-dihydropyrido[2,3-b]pyrazine-7-carboxamide]
- EC50 [1]: < 1 µM
- CC50 at 4 days [2]: < 40 µM
- IC50 [3]: < 1 µM
- IC50 (hERG potassium channel; [4]): < 10 µM

SMILES: CN1CCN(c2cnc3c(cc(C(=O)NCc4ccc(Cl)cc4)c(=O)n3CC(=O)N3CC(C)(F)C3)n2)C1=O [Compound 3, N-[(4-chlorophenyl)methyl]-5-[2-(3-fluoro-3-methylazetidin-1-yl)-2-oxoethyl]-2-(3-methyl-2-oxoimidazolidin-1-yl)-6-oxo-5,6-dihydropyrido[2,3-b]pyrazine-7-carboxamide]
- EC50 [1]: < 1 µM
- CC50 at 4 days [2]: > 40 µM
- IC50 [3]: < 1 µM
- IC50 (hERG potassium channel; [4]): > 10 µM

SMILES: CC1CCN(c2cnc3c(cc(C(=O)NCc4ccc(Cl)cc4)c(=O)n3CC(=O)N3CC(C)(F)C3)n2)C1=O (stereo not drawn) [Compound 4, N-[(4-chlorophenyl)methyl]-5-[2-(3-fluoro-3-methylazetidin-1-yl)-2-oxoethyl]-2-(3-methyl-2-oxopyrrolidin-1-yl)-6-oxo-5,6-dihydropyrido[2,3-b]pyrazine-7-carboxamide]
- EC50 [1]: < 1 µM
- CC50 at 4 days [2]: > 40 µM
- IC50 [3]: < 1 µM
- IC50 (hERG potassium channel; [4]): < 10 µM

SMILES: CC1(F)CN(C(=O)Cn2c(=O)c(C(=O)NCc3ccc(Cl)cc3)cc3nc(N4CCN(CCN)C4=O)cnc32)C1 [Compound 6]
- EC50 [1]: < 1 µM
- CC50 at 4 days [2]: > 40 µM
- IC50 [3]: < 1 µM
- IC50 (hERG potassium channel; [4]): > 10 µM

SMILES: CC1(F)CN(C(=O)Cn2c(=O)c(C(=O)NCc3ccc(Cl)cc3)cc3nc(N4CCNC4=O)cnc32)C1 [Compound 12, N-[(4-chlorophenyl)methyl]-5-[2-(3-fluoro-3-methylazetidin-1-yl)-2-oxoethyl]-6-oxo-2-(2-oxoimidazolidin-1-yl)-5,6-dihydropyrido[2,3-b]pyrazine-7-carboxamide]
- EC50 [1]: < 1 µM
- CC50 at 4 days [2]: > 40 µM
- IC50 [3]: < 1 µM
- IC50 (hERG potassium channel; [4]): > 10 µM

SMILES: CC1(F)CN(C(=O)Cn2c(=O)c(C(=O)NCc3ccc(Cl)cc3)cc3nc(N4CCN(CC(=O)O)C4=O)cnc32)C1 [Compound 13, [3-(7-{[(4-chlorophenyl)methyl]carbamoyl}-5-[2-(3-fluoro-3-methylazetidin-1-yl)-2-oxoethyl]-6-oxo-5,6-dihydropyrido[2,3-b]pyrazin-2-yl)-2-oxoimidazolidin-1-yl]acetic acid]
- EC50 [1]: > 1 µM
- CC50 at 4 days [2]: > 40 µM
- IC50 [3]: < 1 µM
- IC50 (hERG potassium channel; [4]): > 10 µM

SMILES: CN1C(=O)CN(c2cnc3c(cc(C(=O)NCc4ccc(Cl)cc4)c(=O)n3CC(=O)N3CC(C)(F)C3)n2)C1=O [Compound 14, N-[(4-chlorophenyl)methyl]-5-[2-(3-fluoro-3-methylazetidin-1-yl)-2-oxoethyl]-2-(3-methyl-2,4-dioxoimidazolidin-1-yl)-6-oxo-5,6-dihydropyrido[2,3-b]pyrazine-7-carboxamide]
- EC50 [1]: > 1 µM
- CC50 at 4 days [2]: > 40 µM
- IC50 [3]: < 1 µM
- IC50 (hERG potassium channel; [4]): > 10 µM

SMILES: CN1C(=O)CN(c2cnc3c(cc(C(=O)NCc4ccc(Cl)cc4)c(=O)n3CC(=O)N3CC4(CC4)C3)n2)C1=O [Compound 15, 5-[2-(5-azaspiro[2.3]hexan-5-yl)-2-oxoethyl]-N-[(4-chlorophenyl)methyl]-2-(3-methyl-2,4-dioxoimidazolidin-1-yl)-6-oxo-5,6-dihydropyrido[2,3-b]pyrazine-7-carboxamide]
- EC50 [1]: < 1 µM
- CC50 at 4 days [2]: > 40 µM
- IC50 [3]: < 1 µM
- IC50 (hERG potassium channel): < 10 µM

SMILES: O=C(O)CN1CCN(c2cnc3c(cc(C(=O)NCc4ccc(Cl)cc4)c(=O)n3CC(=O)N3CC4(CC4)C3)n2)C1=O [Compound 20, [3-(5-[2-(5-azaspiro[2.3]hexan-5-yl)-2-oxoethyl]-7-{[(4-chlorophenyl)methyl]carbamoyl}-6-oxo-5,6-dihydropyrido[2,3-b]pyrazin-2-yl)-2-oxoimidazolidin-1-yl]acetic acid]
- EC50 [1]: > 1 µM
- CC50 at 4 days [2]: > 40 µM
- IC50 (hERG potassium channel; [4]): > 10 µM
